# Results reported in US10130724B2, “Mini-gastrin analogue, in particular for use in CCK2 receptor positive tumour diagnosis and/or treatment” (PAUL SCHERRER INSTITUT, priority 2013, dated 2018).
# Key:
# [1] = tested on: human CCK-2 receptor transfected A431 cells; assay: Biodistribution of 177Lu-labelled mini-gastrin analogues in tumour-bearing CD1 nu/nu mice; format: in vivo; conditions: 4 hours after injection
# Procedure: PP-F11N has been investigated according to the CD1 nu/nu mice model. […] FIG. 2 illustrates the biodistribution of PP-F11, PP-F11N and oxidized PP-F11 ox (oxidized PP-F11) after 4 hours in the athymic CD1 nu/nu mice model. Tumour positive: with human CCK-2 receptor transfected A431 cells on one side of the mouse; tumor negative: CCK-2 receptor negative A431 cells on the other side of the mouse. The effect of the higher tumor uptake by the exchange of methionine with norleucine is specifically apparent with compounds having the DGlu6 sequence, different from compounds having a sequence with DGLn6 which is referred to as PP-F10.
# CD1 nu/nu mice were injected with 5×10^6 A431 cells. CCK-2 receptor positive A431 cells' were injected into one flank and mock cells on the other as an unspecific control. The tumors reach a weight of about 80 to 120 mg after about 10 days. 150-200 kBq (5 pmol) of the radiolabelled peptides were injected into the tail vein. Mice were killed by CO2 asphyxiation after defined time points post injection. The organs were dissected, weighted and the activity was measured. The % injected activity per gram (% i.A./g) was calculated. The animal experiments were approved by the local animal welfare committee and performed according to national regulations.
# [2] = Stability of 177Lu-labelled mini-gastrin analogues in human serum, metabolites by HPLC; format: in vitro ADME; conditions: compared to PP-F11, PP-F10N and PP-F10
# Procedure: 12 MBq of the radiolabelled compound was incubated in 2 mL fresh human plasma. A 40 μL probe was taken after 0, 1, 2, 18, 24, 48 and 72 h and added 200 μL (50% Methanol and 50% Acetonitril) in a Mini-UniPrep Filter. The solution is filtered after vortexing. 40 μL of the filtered solution is analyzed by HPLC.
compound,measurement,setting,value
CCCC[C@H](NC(=O)[C@H](Cc1c[nH]c2ccccc12)NC(=O)CNC(=O)[C@H](Cc1ccc(O)cc1)NC(=O)[C@H](C)NC(=O)[C@@H](CCC(=O)O)NC(=O)[C@@H](CCC(=O)O)NC(=O)[C@@H](CCC(=O)O)NC(=O)[C@@H](CCC(=O)O)NC(=O)[C@@H](CCC(=O)O)NC(=O)[C@@H](CCC(=O)O)NC(=O)CN1CCN(CC(=O)O)CCN(CC(=O)O)CCN(CC(=O)O)CC1)C(=O)N[C@@H](CC(=O)O)C(=O)N[C@@H](Cc1ccccc1)C(N)=O [PP-F11N],accumulation in the kidneys,[1],very few accumulation in the kidneys
same,pharmacologic stability,[2],highest pharmacologic stability of all probands
